Test results from patent US11180462B2, “Microbiocidal oxadiazole derivatives” (SYNGENTA PARTICIPATIONS AG, priority 2015, dated 2021).

Columns and labels:
[1] = test system: Puccinia recondita f. Sp. Tritici; experiment: Fungicidal activity against Puccinia recondita f. sp. tritici / wheat / leaf disc preventative (brown rust); type: in vivo; conditions: foliar, 200 ppm in the applied formulation, wheat leaf segments, preventative, compared to untreated control leaf disks, read-out: disease control
How it was run: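 Percent disease control relative to untreated check segments is scored once disease develops, 7 to 9 days after application. Wheat cv. Kanzler segments receive compound spray (200 ppm in formulation) one day before spore inoculation, then sit at 19° C. and 75% rh under 12 h light/12 h dark.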

[2] = test system: Phakopsora Pachyrhizi; experiment: Fungicidal activity against Phakopsora pachyrhizi / soybean / leaf disc preventative (Asian soybean rust); type: in vivo; conditions: foliar, 200 ppm in the applied formulation, soybean leaf disks, compared to untreated control leaf disks, read-out: disease control
Description: Leaf disks or leaf segments of various plant species are cut from plants grown in a greenhouse. The cut leaf disks or segments are placed in multiwell plates (24-well format) onto water agar. The leaf disks are sprayed with a test solution before (preventative) or after (curative) inoculation. Compounds to be tested are prepared as DMSO solutions (max. 10 mg/ml) which are diluted to the appropriate concentration with 0.025% Tween20 just before spraying. The inoculated leaf disks or segments are incubated under defined conditions (temperature, relative humidity, light, etc.) according to the respective test system. A single evaluation of disease level is carried out 3 to 14 days after inoculation, depending on the pathosystem. Percent disease control relative to the untreated check leaf disks or segments is then calculated.
Fungicidal Activity Against Phakopsora Pachyrhizi Soybean/Leaf Disc Preventative (Asian Soybean Rust)
Soybean leaf disks are placed on water agar in multiwell plates (24-well format) and sprayed with the formulated test compound diluted in water. One day after application leaf discs are inoculated by spraying a spore suspension on the lower leaf surface. After an incubation period in a climate cabinet of 24-36 hours in darkness at 20° C. and 75% rh leaf disc are kept at 20° C. with 12 h light/day and 75% rh. The activity of a compound is assessed as percent disease control compared to untreated when an appropriate level of disease damage appears in untreated check leaf disks (12 to 14 days after application).
The following compounds at 200 ppm in the applied formulation give at least 80% disease control in this test when compared to untreated control leaf disks under the same conditions, which show extensive disease development.

[3] = test system: Glomerella lagenarium (Colletotrichum lagenarium); experiment: Fungicidal activity against Glomerella lagenarium (Colletotrichum lagenarium) liquid culture / cucumber / preventative (anthracnose); type: cell-based; conditions: Colletotrichum orbiculare; 20 ppm in the applied formulation; liquid culture (PDB), growth inhibition measured photometrically after 3 to 4 days; compared to untreated control; read-out: disease control
How it was run: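 Percent activity against the untreated check was derived from photometric growth measurements made 2 to 7 days after conidia in potato dextrose broth were combined with compound at 20 ppm. Cultures were kept dark at 24 °C and 96% humidity.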

Compound	pest or weed control at 200 ppm [1] [%]	pest or weed control at 200 ppm [2] [%]	inhibition of growth at 20 ppm [3] [%]
C#CCC(NS(=O)(=O)CC)C(=O)N(Cc1ccc(-c2noc(C(F)(F)F)n2)cc1)OC (stereo not shown) [Compound 1.60, 2-(ethylsulfonylamino)-N-methoxy-N-[[4-[5-(trifluoromethyl)-1,2,4-oxadiazol-3-yl]phenyl]methyl]-pent-4-ynamide]	≥ 80	≥ 80	
CCON(Cc1ccc(-c2noc(C(F)(F)F)n2)cc1)C(=O)c1ccccc1Cl [Compound 1.616, 2-chloro-N-ethoxy-N-[[4-[5-(trifluoromethyl)-1,2,4-oxadiazol-3-yl]phenyl]methyl]-benzamide]		≥ 80	≥ 80
CCON(Cc1ccc(-c2noc(C(F)(F)F)n2)cc1)C(=O)CC(F)(F)F [Compound 1.630, N-ethoxy-3,3,3-trifluoro-N-[[4-[5-(trifluoromethyl)-1,2,4-oxadiazol-3-yl]phenyl]methyl]-propanamide]		≥ 80	≥ 80
CCON(Cc1ccc(-c2noc(C(F)(F)F)n2)cc1)C(=O)CC1CC1 [Compound 1.632, 2-cyclopropyl-N-ethoxy-N-[[4-[5-(trifluoromethyl)-1,2,4-oxadiazol-3-yl]phenyl]methyl]-acetamide]		≥ 80	≥ 80
CCCCON(Cc1ccc(-c2noc(C(F)(F)F)n2)cc1)C(=O)C1CC1(F)F (stereo not shown) [Compound 1.634, N-butoxy-2,2-difluoro-N-[[4-[5-(trifluoromethyl)-1,2,4-oxadiazol-3-yl]phenyl]methyl]-cyclopropane-carboxamide]		≥ 80	≥ 80
CCCCON(Cc1ccc(-c2noc(C(F)(F)F)n2)cc1)C(=O)CCOC [Compound 1.637, N-butoxy-3-methoxy-N-[[4-[5-(trifluoromethyl)-1,2,4-oxadiazol-3-yl]phenyl]methyl]-propanamide]		≥ 80	≥ 80
CCCCON(Cc1ccc(-c2noc(C(F)(F)F)n2)cc1)C(=O)C1(C)CC1 [Compound 1.639, N-butoxy-1-methyl-N-[[4-[5-(trifluoromethyl)-1,2,4-oxadiazol-3-yl]phenyl]methyl]-cyclopropane-carboxamide]		≥ 80	≥ 80
CCCCON(Cc1ccc(-c2noc(C(F)(F)F)n2)cc1)C(=O)C1(C)COC1 [Compound 1.641, N-butoxy-3-methyl-N-[[4-[5-(trifluoromethyl)-1,2,4-oxadiazol-3-yl]phenyl]methyl]-oxetane-3-carboxamide]		≥ 80	≥ 80
CCCCON(Cc1ccc(-c2noc(C(F)(F)F)n2)cc1)C(=O)C(CC)COC (stereo not shown) [Compound 1.642, N-butoxy-2-(methoxymethyl)-N-[[4-[5-(trifluoromethyl)-1,2,4-oxadiazol-3-yl]phenyl]methyl]-butanamide]		≥ 80	≥ 80
CCCCON(Cc1ccc(-c2noc(C(F)(F)F)n2)cc1)C(=O)CCCOC [Compound 1.643, N-butoxy-4-methoxy-N-[[4-[5-(trifluoromethyl)-1,2,4-oxadiazol-3-yl]phenyl]methyl]-butanamide]		≥ 80	≥ 80
CCCCON(Cc1ccc(-c2noc(C(F)(F)F)n2)cc1)C(=O)C1CCCO1 (stereo not shown) [Compound 1.644, N-butoxy-N-[[4-[5-(trifluoromethyl)-1,2,4-oxadiazol-3-yl]phenyl]methyl]-tetrahydrofuran-2-carboxamide]		≥ 80	≥ 80
CCCCON(Cc1ccc(-c2noc(C(F)(F)F)n2)cc1)C(=O)CC#N [Compound 1.645, N-butoxy-2-cyano-N-[[4-[5-(trifluoromethyl)-1,2,4-oxadiazol-3-yl]phenyl]methyl]-acetamide]		≥ 80	≥ 80
CCCCON(Cc1ccc(-c2noc(C(F)(F)F)n2)cc1)C(=O)C1(C#N)CC1 [Compound 1.646, N-butoxy-1-cyano-N-[[4-[5-(trifluoromethyl)-1,2,4-oxadiazol-3-yl]phenyl]methyl]-cyclopropane-carboxamide]		≥ 80	≥ 80
CCCCON(Cc1ccc(-c2noc(C(F)(F)F)n2)cc1)C(=O)CC(F)(F)F [Compound 1.648, N-butoxy-3,3,3-trifluoro-N-[[4-[5-(trifluoromethyl)-1,2,4-oxadiazol-3-yl]phenyl]methyl]-propanamide]		≥ 80	≥ 80
CCCCON(Cc1ccc(-c2noc(C(F)(F)F)n2)cc1)C(C)=O [Compound 1.649, N-butoxy-N-[[4-[5-(trifluoromethyl)-1,2,4-oxadiazol-3-yl]phenyl]methyl]-acetamide]		≥ 80	≥ 80
CCCN(Cc1ccc(-c2noc(C(F)(F)F)n2)cc1)C(=O)c1ccccc1Cl [Compound 1.653, 2-chloro-N-propyl-N-[[4-[5-(trifiuoromethyl)-1,2,4-oxadiazol-3-yl]phenyl]methyl]-benzamide]		≥ 80	≥ 80
CCCN(Cc1ccc(-c2noc(C(F)(F)F)n2)cc1)C(=O)C1CC1C (stereo not shown) [Compound 1.657, 2-methyl-N-propyl-N-[[4-[5-(trifluoromethyl)-1,2,4-oxadiazol-3-yl]phenyl]methyl]-cyclopropane-carboxamide]		≥ 80	≥ 80
O=C(c1ccccc1Cl)N(Cc1ccc(-c2noc(C(F)(F)F)n2)cc1)CC(F)(F)F [Compound 1.691, 2-chloro-N-(2,2,2-trifluoroethyl)-N-[[4-[5-(trifluoromethyl)-1,2,4-oxadiazol-3-yl]phenyl]methyl]-benzamide]		≥ 80	≥ 80
O=C(C1CCC1)N(Cc1ccc(-c2noc(C(F)(F)F)n2)cc1)CC(F)(F)F [Compound 1.694, N-(2,2,2-trifluoroethyl)-N-[[4-[5-(trifluoromethyl)-1,2,4-oxadiazol-3-yl]phenyl]methyl]-cyclobutane-carboxamide]		≥ 80	≥ 80
CC1CC1C(=O)N(Cc1ccc(-c2noc(C(F)(F)F)n2)cc1)CC(F)(F)F (stereo not shown) [Compound 1.695, 2-methyl-N-(2,2,2-trifluoroethyl)-N-[[4-[5-(trifluoromethyl)-1,2,4-oxadiazol-3-yl]phenyl]methyl]-cyclopropane-carboxamide]		≥ 80	≥ 80
CCC(C)C(=O)N(Cc1ccc(-c2noc(C(F)(F)F)n2)cc1)CC(F)(F)F (stereo not shown) [Compound 1.697, 2-methyl-N-(2,2,2-trifluoroethyl)-N-[[4-[5-(trifluoromethyl)-1,2,4-oxadiazol-3-yl]phenyl]methyl]-butanamide]		≥ 80	≥ 80
CCC(COC)C(=O)N(Cc1ccc(-c2noc(C(F)(F)F)n2)cc1)CC(F)(F)F (stereo not shown) [Compound 1.699, 2-(methoxymethyl)-N-(2,2,2-trifluoroethyl)-N-[[4-[5-(trifluoromethyl)-1,2,4-oxadiazol-3-yl]phenyl]methyl]-butanamide]		≥ 80	≥ 80
COCCCC(=O)N(Cc1ccc(-c2noc(C(F)(F)F)n2)cc1)CC(F)(F)F [Compound 1.700, 4-methoxy-N-(2,2,2-trifluoroethyl)-N-[[4-[5-(trifluoromethyl)-1,2,4-oxadiazol-3-yl]phenyl]methyl]-butanamide]		≥ 80	≥ 80
O=C(CC1CC1)N(Cc1ccc(-c2noc(C(F)(F)F)n2)cc1)CC(F)(F)F [Compound 1.706, 2-cyclopropyl-N-(2,2,2-trifluoroethyl)-N-[[4-[5-(trifluoromethyl)-1,2,4-oxadiazol-3-yl]phenyl]methyl]-acetamide]		≥ 80	≥ 80
N#CC1(C(=O)OCCN(Cc2ccc(-c3noc(C(F)(F)F)n3)cc2)C(=O)C2(C#N)CC2)CC1 [Compound 1.730, 2-[(1-cyanocyclopropane-carbonyl)-[[4-[5-(trifluoromethyl)-1,2,4-oxadiazol-3-yl]phenyl]methyl]-amino]ethyl 1-cyanocyclopropane-carboxylate]		≥ 80	≥ 80
O=C(ON(Cc1ccc(-c2noc(C(F)(F)F)n2)cc1)C(=O)c1ccccc1Cl)c1ccccc1Cl [Compound 1.755, [(2-chlorobenzoyl)-[[4-[5-(trifluoromethyl)-1,2,4-oxadiazol-3-yl]phenyl]methyl]-amino] 2-chlorobenzoate]		≥ 80	≥ 80
